Here are results for 18 molecules from ChEMBL document CHEMBL5291721, “A preclinical secondary pharmacology resource illuminates target-adverse drug reaction associations of marketed drugs” (Nat Commun, 2023).

One assay addresses T1, Androgen receptor (Rattus norvegicus, UniProt P15207).
T1 sequence (P15207 whole entry): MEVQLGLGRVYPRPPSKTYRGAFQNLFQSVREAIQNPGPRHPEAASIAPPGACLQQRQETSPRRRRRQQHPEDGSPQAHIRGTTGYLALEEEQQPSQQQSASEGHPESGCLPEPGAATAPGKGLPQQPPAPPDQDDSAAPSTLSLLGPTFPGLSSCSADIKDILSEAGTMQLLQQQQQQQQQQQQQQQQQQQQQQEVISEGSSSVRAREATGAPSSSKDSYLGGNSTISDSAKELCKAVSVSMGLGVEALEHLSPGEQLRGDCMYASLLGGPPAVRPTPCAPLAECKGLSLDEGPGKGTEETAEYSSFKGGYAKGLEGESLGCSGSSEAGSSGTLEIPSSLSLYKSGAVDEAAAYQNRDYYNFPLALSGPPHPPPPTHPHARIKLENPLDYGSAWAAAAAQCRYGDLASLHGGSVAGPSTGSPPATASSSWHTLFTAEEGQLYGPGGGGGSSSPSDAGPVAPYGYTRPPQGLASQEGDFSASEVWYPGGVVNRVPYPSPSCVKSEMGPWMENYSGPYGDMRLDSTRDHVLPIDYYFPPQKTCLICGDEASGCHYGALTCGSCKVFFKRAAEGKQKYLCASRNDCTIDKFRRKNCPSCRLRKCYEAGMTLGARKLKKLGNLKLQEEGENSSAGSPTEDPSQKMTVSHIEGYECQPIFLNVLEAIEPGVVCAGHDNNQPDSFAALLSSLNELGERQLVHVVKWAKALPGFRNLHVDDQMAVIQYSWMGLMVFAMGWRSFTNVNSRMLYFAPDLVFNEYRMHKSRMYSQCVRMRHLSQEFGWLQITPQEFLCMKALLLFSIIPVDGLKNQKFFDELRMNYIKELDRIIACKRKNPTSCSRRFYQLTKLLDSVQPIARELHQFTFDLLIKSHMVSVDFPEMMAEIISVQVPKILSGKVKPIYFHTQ
The class given is functional.

Assay [1] concerns the target T2, Neuropeptide Y receptor type 2 (Homo sapiens, UniProt P49146).
T2 sequence (P49146 whole entry): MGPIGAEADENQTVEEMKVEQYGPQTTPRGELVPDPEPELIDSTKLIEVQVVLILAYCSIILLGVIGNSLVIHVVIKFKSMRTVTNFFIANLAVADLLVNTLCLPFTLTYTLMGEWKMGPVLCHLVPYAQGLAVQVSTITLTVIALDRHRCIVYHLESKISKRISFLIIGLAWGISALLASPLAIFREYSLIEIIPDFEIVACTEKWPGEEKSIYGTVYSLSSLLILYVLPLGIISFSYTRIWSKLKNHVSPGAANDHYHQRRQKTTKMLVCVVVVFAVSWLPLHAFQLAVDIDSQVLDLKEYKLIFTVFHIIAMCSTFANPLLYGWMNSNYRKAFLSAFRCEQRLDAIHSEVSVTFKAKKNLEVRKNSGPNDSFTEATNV

The target of assay [2] is Neurotensin receptor type 1 (Homo sapiens, UniProt P30989).
Assay [3] has as its target T3, Muscarinic acetylcholine receptor M2 (Homo sapiens, UniProt P08172).
T3 sequence (P08172 whole entry): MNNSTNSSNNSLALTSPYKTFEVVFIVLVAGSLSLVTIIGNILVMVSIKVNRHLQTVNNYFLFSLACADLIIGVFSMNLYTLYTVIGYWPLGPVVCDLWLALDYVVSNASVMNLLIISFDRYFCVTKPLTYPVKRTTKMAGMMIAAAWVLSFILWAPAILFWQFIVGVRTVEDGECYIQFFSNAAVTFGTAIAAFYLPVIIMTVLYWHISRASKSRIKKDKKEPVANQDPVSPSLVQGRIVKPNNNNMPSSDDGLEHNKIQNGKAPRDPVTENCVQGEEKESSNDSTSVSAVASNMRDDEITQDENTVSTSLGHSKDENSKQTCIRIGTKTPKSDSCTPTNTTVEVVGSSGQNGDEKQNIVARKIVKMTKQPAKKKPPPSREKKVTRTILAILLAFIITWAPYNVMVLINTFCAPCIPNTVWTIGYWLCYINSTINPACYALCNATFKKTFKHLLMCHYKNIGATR

Assay [4] has as its target Voltage-dependent N-type calcium channel subunit alpha-1B (Rattus norvegicus, UniProt Q02294). The class given is functional.
The target in a further assay is Histamine H2 receptor (Homo sapiens, UniProt P25021).
Assay [5] addresses Beta-3 adrenergic receptor (Homo sapiens, UniProt P13945).
Assay [6] has as its target T4, Alpha-1A adrenergic receptor (Homo sapiens, UniProt P35348).
T4 sequence (P35348 whole entry): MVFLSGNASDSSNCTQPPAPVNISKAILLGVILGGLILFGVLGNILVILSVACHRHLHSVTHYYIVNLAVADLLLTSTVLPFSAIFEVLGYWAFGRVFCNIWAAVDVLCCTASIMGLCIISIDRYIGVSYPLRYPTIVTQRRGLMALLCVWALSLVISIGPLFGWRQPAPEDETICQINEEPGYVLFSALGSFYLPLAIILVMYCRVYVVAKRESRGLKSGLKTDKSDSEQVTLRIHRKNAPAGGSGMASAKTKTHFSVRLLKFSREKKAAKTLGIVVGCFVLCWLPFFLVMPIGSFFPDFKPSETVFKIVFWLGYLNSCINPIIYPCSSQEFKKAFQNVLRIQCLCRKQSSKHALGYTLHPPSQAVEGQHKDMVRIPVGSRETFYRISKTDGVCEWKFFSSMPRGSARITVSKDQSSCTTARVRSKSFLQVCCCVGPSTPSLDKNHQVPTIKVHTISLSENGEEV

Assay [7] has as its target T5, Endothelin receptor type B (Homo sapiens, UniProt P24530).
T5 sequence (P24530 whole entry): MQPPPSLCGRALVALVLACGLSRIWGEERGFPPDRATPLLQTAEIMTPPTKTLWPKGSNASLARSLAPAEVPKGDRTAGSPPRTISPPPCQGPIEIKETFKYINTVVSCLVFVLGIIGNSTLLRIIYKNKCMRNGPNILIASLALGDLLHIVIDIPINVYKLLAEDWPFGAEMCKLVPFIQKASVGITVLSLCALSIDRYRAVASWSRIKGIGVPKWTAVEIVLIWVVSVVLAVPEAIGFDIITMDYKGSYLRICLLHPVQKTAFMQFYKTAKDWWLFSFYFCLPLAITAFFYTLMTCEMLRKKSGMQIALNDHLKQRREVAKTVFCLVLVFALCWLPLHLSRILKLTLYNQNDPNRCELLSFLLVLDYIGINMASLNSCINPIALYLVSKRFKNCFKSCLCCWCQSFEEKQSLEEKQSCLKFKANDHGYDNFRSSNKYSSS

Usually AC50 stands for the midpoint of the concentration-response curve, whichever way the signal moves.
Further: assay procedure not described here.

Sequence of Histamine H2 receptor (P25021 whole entry): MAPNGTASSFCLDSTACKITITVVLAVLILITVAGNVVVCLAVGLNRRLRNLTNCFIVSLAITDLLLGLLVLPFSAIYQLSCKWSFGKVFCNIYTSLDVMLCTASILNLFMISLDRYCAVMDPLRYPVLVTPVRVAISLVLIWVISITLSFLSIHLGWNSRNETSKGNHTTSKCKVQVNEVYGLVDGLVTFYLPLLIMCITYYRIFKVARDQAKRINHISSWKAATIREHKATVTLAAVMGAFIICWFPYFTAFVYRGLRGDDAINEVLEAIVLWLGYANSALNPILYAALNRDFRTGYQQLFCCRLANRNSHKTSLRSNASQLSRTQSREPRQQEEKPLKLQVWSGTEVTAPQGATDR
Sequence of Beta-3 adrenergic receptor (P13945 whole entry): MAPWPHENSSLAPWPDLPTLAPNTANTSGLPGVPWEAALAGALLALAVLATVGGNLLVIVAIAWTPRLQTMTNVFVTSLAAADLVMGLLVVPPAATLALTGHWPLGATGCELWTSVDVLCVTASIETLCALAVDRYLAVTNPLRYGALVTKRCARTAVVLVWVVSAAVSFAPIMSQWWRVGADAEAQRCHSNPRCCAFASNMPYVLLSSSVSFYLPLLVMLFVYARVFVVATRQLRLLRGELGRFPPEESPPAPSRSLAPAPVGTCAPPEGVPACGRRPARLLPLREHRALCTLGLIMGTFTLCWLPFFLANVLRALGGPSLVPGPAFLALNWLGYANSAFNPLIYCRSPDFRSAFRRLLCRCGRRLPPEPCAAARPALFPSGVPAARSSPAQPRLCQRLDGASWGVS
Sequence of Voltage-dependent N-type calcium channel subunit alpha-1B (Q02294 whole entry): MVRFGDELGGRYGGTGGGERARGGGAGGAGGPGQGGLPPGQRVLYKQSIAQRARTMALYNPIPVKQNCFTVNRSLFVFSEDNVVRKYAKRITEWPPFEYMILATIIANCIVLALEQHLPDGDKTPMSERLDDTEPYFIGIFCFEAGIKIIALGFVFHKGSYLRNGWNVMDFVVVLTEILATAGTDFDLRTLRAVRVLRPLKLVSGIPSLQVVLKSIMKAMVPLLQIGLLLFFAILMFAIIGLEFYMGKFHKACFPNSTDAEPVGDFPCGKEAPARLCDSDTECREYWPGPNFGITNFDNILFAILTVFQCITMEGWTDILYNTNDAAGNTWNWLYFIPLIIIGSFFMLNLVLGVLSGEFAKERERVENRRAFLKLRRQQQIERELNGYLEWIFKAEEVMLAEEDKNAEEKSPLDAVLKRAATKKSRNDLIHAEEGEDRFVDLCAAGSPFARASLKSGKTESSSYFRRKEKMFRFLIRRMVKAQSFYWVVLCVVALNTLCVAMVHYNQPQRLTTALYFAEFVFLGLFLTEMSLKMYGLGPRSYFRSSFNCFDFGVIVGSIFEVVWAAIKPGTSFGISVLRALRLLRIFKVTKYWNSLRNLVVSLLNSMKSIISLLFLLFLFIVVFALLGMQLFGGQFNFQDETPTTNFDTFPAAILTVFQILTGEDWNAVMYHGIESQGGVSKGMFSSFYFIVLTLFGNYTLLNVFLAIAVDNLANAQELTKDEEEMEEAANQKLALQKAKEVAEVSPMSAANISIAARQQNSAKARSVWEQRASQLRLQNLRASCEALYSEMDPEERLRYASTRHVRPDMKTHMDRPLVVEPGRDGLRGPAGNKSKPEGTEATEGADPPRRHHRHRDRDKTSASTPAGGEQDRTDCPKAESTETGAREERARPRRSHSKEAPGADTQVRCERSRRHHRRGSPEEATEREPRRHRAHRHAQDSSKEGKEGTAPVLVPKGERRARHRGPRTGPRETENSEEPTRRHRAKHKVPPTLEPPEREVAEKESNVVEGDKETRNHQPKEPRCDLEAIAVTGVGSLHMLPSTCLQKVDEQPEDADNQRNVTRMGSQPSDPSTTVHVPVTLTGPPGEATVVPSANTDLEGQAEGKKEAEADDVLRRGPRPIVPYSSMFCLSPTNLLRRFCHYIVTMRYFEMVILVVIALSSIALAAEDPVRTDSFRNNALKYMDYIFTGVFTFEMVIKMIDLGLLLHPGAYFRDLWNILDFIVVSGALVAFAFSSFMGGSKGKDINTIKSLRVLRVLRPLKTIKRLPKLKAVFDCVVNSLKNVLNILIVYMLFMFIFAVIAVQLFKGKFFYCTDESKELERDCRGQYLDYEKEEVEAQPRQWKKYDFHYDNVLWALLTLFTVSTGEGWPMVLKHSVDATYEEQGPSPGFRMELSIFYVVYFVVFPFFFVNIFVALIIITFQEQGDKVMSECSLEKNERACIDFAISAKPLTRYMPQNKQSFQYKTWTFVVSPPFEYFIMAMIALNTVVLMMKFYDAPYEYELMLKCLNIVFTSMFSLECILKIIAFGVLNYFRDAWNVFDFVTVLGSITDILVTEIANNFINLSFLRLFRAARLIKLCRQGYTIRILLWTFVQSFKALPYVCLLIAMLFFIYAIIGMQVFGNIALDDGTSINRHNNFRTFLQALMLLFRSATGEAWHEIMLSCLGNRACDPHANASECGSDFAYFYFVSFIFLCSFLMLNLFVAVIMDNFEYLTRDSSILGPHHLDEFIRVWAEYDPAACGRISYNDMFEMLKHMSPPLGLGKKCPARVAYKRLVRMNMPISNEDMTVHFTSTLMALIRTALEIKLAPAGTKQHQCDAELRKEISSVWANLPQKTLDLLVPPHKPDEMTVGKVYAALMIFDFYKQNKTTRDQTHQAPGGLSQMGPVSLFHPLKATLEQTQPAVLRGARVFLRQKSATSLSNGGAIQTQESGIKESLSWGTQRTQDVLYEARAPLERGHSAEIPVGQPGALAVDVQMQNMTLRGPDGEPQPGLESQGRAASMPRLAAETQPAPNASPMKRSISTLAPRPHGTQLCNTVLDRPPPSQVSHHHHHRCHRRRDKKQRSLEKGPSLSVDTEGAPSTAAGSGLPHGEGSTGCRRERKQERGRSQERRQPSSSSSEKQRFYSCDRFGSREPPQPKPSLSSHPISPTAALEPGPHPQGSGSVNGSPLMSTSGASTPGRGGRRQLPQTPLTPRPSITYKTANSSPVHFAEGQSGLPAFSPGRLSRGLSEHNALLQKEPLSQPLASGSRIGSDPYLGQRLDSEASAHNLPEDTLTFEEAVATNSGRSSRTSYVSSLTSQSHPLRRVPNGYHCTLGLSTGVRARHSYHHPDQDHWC
Sequence of Neurotensin receptor type 1 (P30989 whole entry): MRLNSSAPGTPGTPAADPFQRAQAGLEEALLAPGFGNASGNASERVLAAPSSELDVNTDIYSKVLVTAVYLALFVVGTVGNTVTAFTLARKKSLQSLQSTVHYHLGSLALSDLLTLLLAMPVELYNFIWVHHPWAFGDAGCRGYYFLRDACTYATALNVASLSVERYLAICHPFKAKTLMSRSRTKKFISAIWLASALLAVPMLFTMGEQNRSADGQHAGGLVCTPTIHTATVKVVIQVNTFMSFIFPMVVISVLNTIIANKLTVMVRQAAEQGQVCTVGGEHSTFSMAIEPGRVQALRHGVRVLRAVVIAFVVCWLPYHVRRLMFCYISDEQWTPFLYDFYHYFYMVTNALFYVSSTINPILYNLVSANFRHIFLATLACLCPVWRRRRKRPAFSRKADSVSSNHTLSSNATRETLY

Take `C[N+](C)(C)CCOP(=O)([O-])OC[C@H](O)CO`: the AC50 at Androgen receptor was > 30 µM.

Turning to `CN(C)C/C=C/C(=O)Nc1cc2c(Nc3ccc(F)c(Cl)c3)ncnc2cc1O[C@H]1CCOC1` [AFATINIB], the AC50 on Androgen receptor was > 30 µM.

Turning to `CCC1(c2ccc(N)cc2)CCC(=O)NC1=O` (stereo not given) [AMINOGLUTETHIMIDE], the AC50 on Androgen receptor was > 30 µM.

Turning to `O=C(/C=C/c1cccc(S(=O)(=O)Nc2ccccc2)c1)NO` [BELINOSTAT], the AC50 in assay [1] is > 10 µM; in assay [2], > 10 µM; in [3] it was > 10 µM; in [4] it was > 10 µM; on Histamine H2 receptor, > 10 µM; in assay [5] it was > 30 µM. Besides, the AC50 in assay [6] and in assay [7] was > 10 µM throughout.

`CC(O)(CS(=O)(=O)c1ccc(F)cc1)C(=O)Nc1ccc(C#N)c(C(F)(F)F)c1` (stereo not given) [BICALUTAMIDE]: the AC50 is > 30 µM in assay [1]; > 30 µM in assay [2]; > 10 µM in assay [3]; > 10 µM in [4]; > 10 µM on Histamine H2 receptor; > 30 µM in assay [5]. Further, the AC50 in [6] is > 10 µM; in [7], > 30 µM.

`O=C(O)COCCN1CCN(C(c2ccccc2)c2ccc(Cl)cc2)CC1` (stereo not given) [CETIRIZINE]: the AC50 in assay [1] was > 30 µM; in [2], > 30 µM; in assay [4], > 10 µM; in assay [5], > 30 µM; in assay [6] it was > 10 µM; in assay [7], > 30 µM.

With `CC(=O)O[C@]1(C(C)=O)CC[C@H]2[C@@H]3C=C(Cl)C4=CC(=O)[C@@H]5C[C@@H]5[C@]4(C)[C@H]3CC[C@@]21C` [CYPROTERONE ACETATE], the AC50 is > 10 µM in assay [3], > 10 µM in assay [4], > 10 µM at Histamine H2 receptor and > 30 µM in assay [5].

In the case of `C[C@@H]1C[C@H]2[C@@H]3C[C@H](F)C4=CC(=O)C=C[C@]4(C)[C@@]3(F)[C@@H](O)C[C@]2(C)[C@@]1(OC(=O)c1ccco1)C(=O)SCF` [FLUTICASONE FUROATE], the AC50 (in assay [1]; in assay [3]; in assay [4]; at Histamine H2 receptor; in [6]; in assay [7]) was > 10 µM each time.

Turning to `CNCCc1ccc(OC(=O)C(C)C)c(OC(=O)C(C)C)c1` [IBOPAMINE], the AC50 at Androgen receptor was > 30 µM.

For `CN(C)CCCN1c2ccccc2CCc2ccccc21` [IMIPRAMINE], the AC50 is > 30 µM in [1]; > 30 µM in assay [2]; 0.454 µM in [3]; > 10 µM in assay [4]; 0.0697 µM on Histamine H2 receptor; > 30 µM in assay [5]. In addition, the AC50 in assay [6] was 0.239 µM; in assay [7] it was > 30 µM.

`CCOC(=O)C1=C(C)NC(C)=C(C(=O)OCC)C1c1ccccc1/C=C/C(=O)OC(C)(C)C` [LACIDIPINE]: the AC50 at Androgen receptor was > 30 µM.

As for `CN(Cc1cnc2nc(N)nc(N)c2n1)c1ccc(C(=O)N[C@@H](CCC(=O)O)C(=O)O)cc1` [METHOTREXATE], the AC50 was > 30 µM in [1]; > 30 µM in [2]; > 10 µM in [3]; > 10 µM in assay [4]; > 10 µM at Histamine H2 receptor; > 30 µM in assay [5]. The AC50 in [7] is > 30 µM.

Regarding `CC(C)c1cccc(C(C)C)c1O` [PROPOFOL], at Androgen receptor, the AC50 is > 30 µM.

Regarding `CN[C@@H](C)[C@@H](O)c1ccccc1` [PSEUDOEPHEDRINE], the AC50 was > 30 µM in [1]; > 30 µM in assay [2]; > 10 µM in assay [3]; > 10 µM in assay [4]; > 10 µM at Histamine H2 receptor; > 30 µM in assay [5]. Further, the AC50 in assay [6] is > 10 µM; in [7], > 30 µM.

On to `CCCN1CC(NS(=O)(=O)N(CC)CC)CC2Cc3c(O)cccc3CC21` (stereo not given) [QUINAGOLIDE], for which the AC50 on Androgen receptor is > 30 µM.

For `O=C1OC(OC(=O)c2cccnc2Nc2cccc(C(F)(F)F)c2)c2ccccc21` (stereo not given) [TALNIFLUMATE], the AC50 at Androgen receptor was > 30 µM.

As to `O=S1(=O)CCN(CN2CCS(=O)(=O)NC2)CN1` [TAUROLIDINE], at Androgen receptor, the AC50 is > 30 µM.

With `CCOC(=O)c1c(CSc2ccccc2)n(C)c2cc(Br)c(O)c(CN(C)C)c12` [UMIFENOVIR], the AC50 on Androgen receptor is > 30 µM.
